From patent US6696440B1, “Treatment of asthma with MEK inhibitors” (Warner-Lambert Company, priority 1999, dated 2004)
Marks after values point to notes of the source that are not given here. Each block holds one compound with its values, some of them ahead of it.

Tests used:
OVA-primed splenocytes = assay: Inhibition of antigen-induced IL-5 production by OVA-primed splenocytes in vitro; type: cell-based, mice; settings: Mus musculus, Splenocyte, 72 h; OVA-sensitized splenocytes cultured 3 days with 200 μg/mL OVA; IL-5 by ELISA
Method: (§1) For each of these assays, female C57BL/6 mice obtained from the Jackson Laboratory (Bar Harbor, Me.) were given an intraperitoneal (i.p.) injection of ovalbumin (OVA, Grade V, Sigma Chemical Company, St. Louis, Mo.) adsorbed to aluminum hydroxide (10 μg OVA+9 mg aluminum hydroxide in 200 μL saline). This sensitizes OVA-specific lymphocytes for subsequent restimulation either in vivo or in vitro.
The first set of experiments was designed to determine whether the MEK inhibitors could prevent antigen-induced production of IL-5 by the OVA-primed splenocytes in vitro. IL-5 is required for the differentiation, migration, and survival of pulmonary eosinophils, which are thought to be responsible for much of the pathology associated with human asthma. In order to examine the effects of MEK inhibitors on IL-5 production, OVA-sensitized mice were sacrificed by cervical dislocation 14 days after sensitization (Day 14), the spleens were excised and disaggregated, and the erythrocytes were lysed. The splenocytes were washed and resuspended at […] in complete medium consisting of RPMI 1640 (Gibco BRL, Gaithersburg, Md.) with 10% heat-inactivated fetal calf serum (Hyclone, Logan, Utah), 55 μM 2-mercaptoethanol, 50 U/mL penicillin G, 50 μg/mL streptomycin sulfate, and 2 mM L-glutamine (Gibco BRL). The splenocytes were then cultured at 37° C. in the presence of 200 μg/mL OVA. MEK inhibitors were also added to the cultures from sterile 10 mM stock solutions (in DMSO). After 3 days, the culture medium was recovered and assayed for IL-5 by specific ELISA.

BAL eosinophils [1] = assay: Active OVA-induced eosinophilic lung inflammation in mice, oral dosing; type: in vivo; settings: for % Inhibition of BAL Eosinophils / % Inhibition of BAL Eosinophilia: oral; for % Inhibition of BAL Eosinophilia: 4 days (Day 13 to Day 16); for activity against BAL eosinophils (in words): multiple doses, dosing for 4 days (Table 4); for inhibitory activity against BAL eosinophils (in words): oral dosing schedule of 9 days (Table 5)
Method: as §1
The final set of experiments was designed to test whether MEK inhibitors could inhibit active OVA-induced eosinophilic lung inflammation in mice. Mice were sensitized with OVA/aluminum hydroxide on Day 0 as described above. On Day 14, the mice were challenged by aerosol with 1.5% OVA, as described above for the adoptive-transfer recipients. One group of eight sensitized mice was dosed orally with vehicle (0.5% hydroxypropylmethylcellulose/0.25% TWEEN-80). Other groups of sensitized mice (8 mice per group) were given oral doses of a MEK inhibitor. The test compound was dissolved in the vehicle, and the volume for each dosage was adjusted to 200 μL, so that each test animal received the same oral volume. In experiments reported in Table 3 and Table 4, the MEK inhibitor was administered starting on Day 13 (ie, 13 days after initial sensitization and 1 day prior to aerosol challenge), and continued daily through Day 16 (4 days total). In experiments reported in Table 5, the MEK inhibitor was administered starting on Day 7 (ie, 7 days after initial sensitization and 7 days prior to aerosol challenge), and continued daily through […]. On Day 17 of each experiment (17 days following the initial OVA challenge, and 3 days after the OVA aerosol challenge), all animals including controls were anesthetized, cannulated, and lavaged as previously described. The number of BAL eosinophils was determined as described above.

BAL eosinophils [2] = assay: Adoptive (passive) transfer of eosinophilic lung inflammation by MEK inhibitor-treated splenocytes; type: in vivo; settings: spleen cell culture treated with 10 μM compound; cells transferred to naive mice; OVA aerosol challenge
Method: as §1
When OVA-sensitized spleen cells are restimulated with OVA in vitro for 3 days, as described above, the spleen cells not only produce IL-5, but also acquire the ability to induce eosinophilic lung inflammation when transferred into naive recipient mice. The critical cell type responsible for this adoptively-transferred activity is thought to be IL-5-producing T lymphocytes. […] Splenocytes from OVA restimulation cultures, with or without the addition of MEK inhibitors were harvested after 3 days of culture, washed three times, and resuspended at 1×10^8 cells/mL in sterile saline. Groups of five naive (unsensitized) […] mice were injected i.p. with 200 μL of the cell suspension (2×10^7 cells). Three days after transfer of cells, the recipient mice were challenged with a 12-minute inhalation of an aerosol formulation of 1.5% OVA in saline (weight/volume), the mist being produced by a nebulizer (small particle generator model SPAG-2, ICN Pharmaceuticals, Costa Mesa, Calif.). Three days after aerosol challenge, the mice were anesthetized with an i.p. injection of an anesthetic mixture comprising Ketamine, acepromazine, and xylazine. The trachea of each mouse was exposed and cannulated. The lungs and upper airways were lavaged with 0.5 mL of cold (5° C.) phosphate buffered saline (PBS). The cells within a 200 μL portion of the bronchoalveolar lavage (BAL) fluid were enumerated using a Coulter counter (Model ZB 1, Coulter Electronics, Hialeah, Fla.). […] The number of eosinophils in the BAL fluid was determined by multiplying the percentage of eosinophils by the total cell count.

[3] = 4-day compound dosing, 10 mg/kg
[4] = 4-day compound dosing, 30 mg/kg
[5] = 4-day compound dosing, 100 mg/kg

SMILES: COc1cccc(-c2cc(=O)c3ccccc3o2)c1N [PD 098059, 2-(2-amino-3-methoxyphenyl)-4-oxo-4H-[1]benzopyran, reference compound]
IC50 (OVA-primed splenocytes): 17400 nM

SMILES: Cc1cc(I)ccc1Nc1c(C(=O)NOCC2CC2)cc(Br)c(F)c1F [PD 177168, 2-(2-Methyl-4-iodophenylamino)-N-cyclopropylmethoxy-3,4-difluoro-5-bromobenzamide]
IC50 (OVA-primed splenocytes): 1200 nM
% Inhibition of BAL Eosinophilia (BAL eosinophils [1]; Dose 100): −23.38%

SMILES: O=C(NOCC1CC1)c1cc(Br)c(F)c(F)c1Nc1ccc(I)cc1Cl [PD 184161, 2-(2-Chloro-4-iodophenylamino)-N-cyclopropylmethoxy-3,4-difluoro-5-bromobenzamide]
IC50 (OVA-primed splenocytes): 1150 nM
% Inhibition of BAL Eosinophilia (BAL eosinophils [1]; Dose 100): −32.53%

SMILES: O=C(NOCC1CC1)c1ccc(F)c(F)c1Nc1ccc(I)cc1Cl [PD 184352, 2-(2-Chloro-4-iodophenylamino)-N-cyclopropylmethoxy-3,4-difluorobenzamide]
IC50 (OVA-primed splenocytes): 1620 nM
% Inhibition of BAL Eosinophils (BAL eosinophils [1]; [3]): −22.7%
% Inhibition of BAL Eosinophils (BAL eosinophils [1]; [4]): −153.8%
% Inhibition of BAL Eosinophils (BAL eosinophils [1]; [5]): −8.2%
% Inhibition of BAL Eosinophils (BAL eosinophils [1]; 9-day compound dosing, 10 mg/kg): −42.99%
% Inhibition of BAL Eosinophils (BAL eosinophils [1]; 9-day compound dosing, 30 mg/kg): 1.83%
% Inhibition of BAL Eosinophils (BAL eosinophils [1]; 9-day compound dosing, 100 mg/kg): 59.85%
% Inhibition of BAL Eosinophilia (BAL eosinophils [1]; Dose 150): −5.41%
activity against BAL eosinophils (in words) (BAL eosinophils [1]): does not
inhibitory activity against BAL eosinophils (in words) (BAL eosinophils [1]): shown to inhibit the asthma-like response in mice
% Inhibition of BAL Eosinophils (BAL eosinophils [2]): 99.46%

SMILES: O=C(NO)c1cc(Br)c(F)c(F)c1Nc1ccc(I)cc1Cl [PD 184386, 2-(2-Chloro-4-iodophenylamino)-N-hydroxy-3,4-difluoro-5-bromobenzamide]
IC50 (OVA-primed splenocytes): 23 nM
% Inhibition of BAL Eosinophilia (BAL eosinophils [1]; Dose 100): −33.24%
% Inhibition of BAL Eosinophils (BAL eosinophils [2]): 99.78%

Now from value to compound, other results behind:

melting point: 224 to 229.5 °C
SMILES: Cc1cc(I)ccc1Nc1cc(F)ccc1C(=O)O [Example 1, 4-Fluoro-2-(4-iodo-2-methylphenylamino)benzoic Acid]

melting point: 218 to 223 °C
SMILES: Cc1cc(I)ccc1Nc1ccccc1C(=O)O [Example 19, 2-(4-Iodo-2-methyl-phenylamino)-benzoic acid]

melting point: 208 to 211 °C
SMILES: COc1ccc(Nc2ccc(I)cc2)c(C(=O)O)c1 [Example 24, 2-(4-Iodo-phenylamino)-5-methoxy-benzoic acid]

melting point: 231 °C (dec.)
SMILES: Cc1cc(I)ccc1Nc1ccccc1-c1nnn[nH]1 [Example 208, (4-iodo-2-methyl-phenyl)-[2-(1H-tetrazol-5-yl)-phenyl]amine]

melting point: 61 to 75 °C
SMILES: Cc1cc(I)ccc1Nc1cc(F)ccc1C(=O)NO [PD 170611, 2-(2-Methyl-4-iodophenylamino)-N-hydroxy-4-fluorobenzamide]
IC50 (OVA-primed splenocytes): 1120 nM

melting point: 80 to 90 °C
SMILES: Cc1cc(I)ccc1Nc1c(C(=O)NO)cc(Br)c(F)c1F [PD 171984, 2-(2-Methyl-4-iodophenylamino)-N-hydroxy-3,4-difluoro-5-bromobenzamide]
IC50 (OVA-primed splenocytes): 117 nM
% Inhibition of BAL Eosinophils (BAL eosinophils [1]; [3]): 38.4* %
% Inhibition of BAL Eosinophils (BAL eosinophils [1]; [4]): 46.6* %
% Inhibition of BAL Eosinophils (BAL eosinophils [1]; [5]): 58.4* %
% Inhibition of BAL Eosinophils (BAL eosinophils [1]; 9-day compound dosing, 10 mg/kg, Experiment 1): −13.74%
% Inhibition of BAL Eosinophils (BAL eosinophils [1]; 9-day compound dosing, 10 mg/kg, Experiment 2): 50.15* %
% Inhibition of BAL Eosinophils (BAL eosinophils [1]; 9-day compound dosing, 30 mg/kg, Experiment 1): 80.64* %
% Inhibition of BAL Eosinophils (BAL eosinophils [1]; 9-day compound dosing, 30 mg/kg, Experiment 2): 37.23* %
% Inhibition of BAL Eosinophils (BAL eosinophils [1]; 9-day compound dosing, 100 mg/kg, Experiment 1): 88.40* %
% Inhibition of BAL Eosinophils (BAL eosinophils [1]; 9-day compound dosing, 100 mg/kg, Experiment 2): 54.77* %
% Inhibition of BAL Eosinophilia (BAL eosinophils [1]; Dose 100): 55.26* %
inhibition of pulmonary eosinophilia (in words) (BAL eosinophils [1]; initial analysis, dosed orally for 4 days (Table 3)): demonstrated any inhibition of pulmonary eosinophilia
activity against BAL eosinophils (in words) (BAL eosinophils [1]): appears active
inhibitory activity against BAL eosinophils (in words) (BAL eosinophils [1]): statistically significant inhibitory activity
% Inhibition of BAL Eosinophils (BAL eosinophils [2]): 99.82%
